In patent US5760276A, “Aryl-and heteroarylcyclohexenyl substituted alkenes having retinoid agonist, antagonist or inverse agonist type biological activity” (Allergan, priority 1997, dated 1998):

Key:
RARα = biological target: T1, RARα (Homo sapiens, UniProt P10276); experiment: Ligand binding assay, RARα
T1 sequence (P10276 1-462): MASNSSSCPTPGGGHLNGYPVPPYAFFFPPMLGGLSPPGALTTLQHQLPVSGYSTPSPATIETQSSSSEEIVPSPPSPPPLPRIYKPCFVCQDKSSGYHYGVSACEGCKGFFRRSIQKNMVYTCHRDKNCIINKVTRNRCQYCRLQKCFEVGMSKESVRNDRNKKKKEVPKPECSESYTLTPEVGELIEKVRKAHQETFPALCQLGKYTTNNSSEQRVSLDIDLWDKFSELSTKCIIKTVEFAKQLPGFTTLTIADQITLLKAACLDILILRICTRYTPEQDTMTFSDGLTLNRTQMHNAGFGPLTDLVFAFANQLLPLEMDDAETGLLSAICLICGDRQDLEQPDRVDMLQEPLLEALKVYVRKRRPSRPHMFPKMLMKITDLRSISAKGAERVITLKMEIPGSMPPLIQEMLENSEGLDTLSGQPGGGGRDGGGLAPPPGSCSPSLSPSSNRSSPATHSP
Source text: (§1) Other assays described below, measure the ability of the compounds of the present invention to bind to, and/or activate various retinoid receptor subtypes. When in these assays a compound binds to a given receptor subtype and activates the transcription of a reporter gene through that subtype, then the compound is considered an agonist of that receptor subtype. […] In the below described assays the ability of the compounds to bind to RARα, RARβ, RARγ, RXRα, RXRβ and RXRγ receptors, and the ability or inability of the compounds to activate transcription of a reporter gene through these receptor subtypes can be tested.
(§2) A holoreceptor transactivation assay and a ligand binding assay which measure the antagonist/agonist like activity of the compounds of the invention, or their ability to bind to the several retinoid receptor subtypes, respectively, are described in published PCT Application No. WO WO93/11755 (particularly on pages 30-33 and 37-41) published on Jun. 24, 1993, the specification of which is also incorporated herein by reference. A description of the holoreceptor transactivation assay is also provided below.
(§3) CV1 cells (5,000 cells/well) were transfected with an RAR reporter plasmid MTV-TREp-LUC (50 ng) along with one of the RAR expression vectors (10 ng) in an automated 96-well format by the calcium phosphate procedure of Heyman et al. Cell 68, 397-406, (1992). For RXRα and RXRγ transactivation assays, an RXR-responsive reporter plasmid CRBPII-tk-LUC (50 ng) along with the appropriate RXR expression vectors (10 ng) was used substantially as described by Heyman et al. above, and Allegretto et al. J. Biol. Chem. 268, 26625-26633. For RXRβ transactivation assays, an RXR-responsive reporter plasmid CPRE-tk-LUC ([…]) along with RXRβ expression vector ([…]) was used as described in above. These reporters contain DRI elements from human CRBPII and certain DRI elements from promoter, respectively. (see Mangelsdorf et al. The Retinoids: Biology, Chemistry and Medicine, pp 319-349, Raven Press Ltd., New York and Heyman et al., cited above) (1, 8). A β-galactosidase (50 ng) expression vector was used as an internal control in the transfections to normalize for variations in transfection efficiency. The cells were transfected in triplicate for 6 hours, followed by incubation with retinoids for 36 hours, and the extracts were assayed for luciferase and β-galactosidase activities. The detailed experimental procedure for holoreceptor transactivations has been described in Heyman et al. and Allegretto et al., cited above. The results obtained in this assay are expressed in EC50 numbers, as they are also in the chimeric receptor transactivation assay. The Heyman et al. Cell 68, 397-406, Allegretto et al. J. Biol. Chem. 268, 26625-26633, and Mangelsdorf et al. The Retinoids: Biology, Chemistry and Medicine, pp 319-349, Raven Press Ltd., New York, are expressly incorporated herein by reference. The results of ligand binding assay are expressed in Kd numbers. (See Cheng et al. Biochemical Pharmacology Vol. 22 pp 3099-3108, expressly incorporated herein by reference.)

RARγ = biological target: T2, RARγ (Homo sapiens, UniProt P13631); experiment: Ligand binding assay, RARγ
T2 sequence (P13631 1-454): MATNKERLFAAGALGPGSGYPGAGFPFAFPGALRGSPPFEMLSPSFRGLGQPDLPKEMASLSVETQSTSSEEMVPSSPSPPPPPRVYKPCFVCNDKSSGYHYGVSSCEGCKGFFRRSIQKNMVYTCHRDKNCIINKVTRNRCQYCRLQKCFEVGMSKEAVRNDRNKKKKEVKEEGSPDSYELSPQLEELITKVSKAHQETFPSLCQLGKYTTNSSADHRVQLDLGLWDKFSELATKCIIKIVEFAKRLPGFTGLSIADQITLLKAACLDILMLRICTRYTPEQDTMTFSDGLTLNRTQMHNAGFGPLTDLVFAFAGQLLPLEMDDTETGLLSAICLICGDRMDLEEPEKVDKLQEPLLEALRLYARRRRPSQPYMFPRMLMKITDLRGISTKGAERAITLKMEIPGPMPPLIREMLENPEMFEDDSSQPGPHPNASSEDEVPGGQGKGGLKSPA
Source text: Other assays described below, measure the ability of the compounds of the present invention to bind to, and/or activate various retinoid receptor subtypes. When in these assays a compound binds to a given receptor subtype and activates the transcription of a reporter gene through that subtype, then the compound is considered an agonist of that receptor subtype. […] In the below described assays the ability of the compounds to bind to RARα, RARβ, RARγ, RXRα, RXRβ and […]. receptors, and the ability or inability of the compounds to activate transcription of a reporter gene through these receptor subtypes can be tested. A holoreceptor transactivation assay and a ligand binding assay which measure the antagonist/agonist like activity of the compounds of the invention, or their ability to bind to the several retinoid receptor subtypes, respectively, are described in published PCT Application No. […] A description of the holoreceptor transactivation assay is also provided below. […] Cell 68, 397-406, (1992). For RXRα and RXRγ transactivation assays, an RXR-responsive reporter plasmid CRBPII-tk-LUC (50 ng) along with the appropriate RXR expression vectors (10 ng) was used substantially as described by Heyman et al. above, and Allegretto et al. J. Biol. Chem. 268, 26625-26633. […] These reporters contain DRI elements from human CRBPII and certain DRI elements from promoter, respectively. (see Mangelsdorf et al. The Retinoids: Biology, Chemistry and Medicine, pp 319-349, Raven Press Ltd., New York and Heyman et al., cited above) (1, 8). A β-galactosidase (50 ng) expression vector was used as an internal control in the transfections to normalize for variations in transfection efficiency. The cells were transfected in triplicate for 6 hours, followed by incubation with retinoids for 36 hours, and the extracts were assayed for luciferase and β-galactosidase activities. The detailed experimental procedure for holoreceptor transactivations has been described in Heyman et al. and Allegretto et al., cited above. The results obtained in this assay are expressed in EC50 numbers, as they are also in the chimeric receptor transactivation assay. The Heyman et al. Cell 68, 397-406, Allegretto et al. J. Biol. Chem. 268, 26625-26633, and Mangelsdorf et al. The Retinoids: Biology, Chemistry and Medicine, pp 319-349, Raven Press Ltd., New York, are expressly incorporated herein by reference. The results of ligand binding assay are expressed in Kd numbers.

RARβ = biological target: T3, RARβ (Homo sapiens, UniProt P10826); experiment: Ligand binding assay, RARβ
T3 sequence (P10826 1-455): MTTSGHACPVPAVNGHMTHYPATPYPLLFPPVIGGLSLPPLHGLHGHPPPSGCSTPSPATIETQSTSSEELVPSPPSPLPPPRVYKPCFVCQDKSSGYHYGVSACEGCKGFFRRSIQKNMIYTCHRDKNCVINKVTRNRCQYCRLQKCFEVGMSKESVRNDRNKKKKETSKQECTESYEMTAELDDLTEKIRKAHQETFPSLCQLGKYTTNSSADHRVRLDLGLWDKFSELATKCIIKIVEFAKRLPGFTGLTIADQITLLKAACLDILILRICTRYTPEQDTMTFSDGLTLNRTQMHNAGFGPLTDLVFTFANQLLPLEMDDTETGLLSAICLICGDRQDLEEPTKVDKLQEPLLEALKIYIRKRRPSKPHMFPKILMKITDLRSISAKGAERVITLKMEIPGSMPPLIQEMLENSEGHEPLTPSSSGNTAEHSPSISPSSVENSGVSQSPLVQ
Source text: as §1, §2, §3

RARγ -VP-16 = experiment: Retinoid inverse agonist assay: inhibition of basal luciferase activity of RARγ-VP-16 chimeric receptor in cotransfected CV-1 cells; assay type: cell-based; conditions: CV-1 cells cotransfected with RARγ -VP-16, ER-RXRα chimeric receptor and ERE-tk-Luc reporter
Source text: Inverse agonists are ligands that are capable of inhibiting the basal receptor activity of unliganded receptors. […] Moreover, the biological effects associated with retinoid inverse agonists are distinct from those of retinoid agonists or antagonists. For example, RAR inverse agonists, but not RAR neutral antagonists, cause a dose-dependent inhibition of the protein MRP-8 in cultured human keratinocytes differentiated with serum. MRP-8 is a specific marker of cell differentiation, which is also highly expressed in psoriatic epidermis, but is not detectable in normal human skin. Thus, retinoid inverse agonists may offer a unique way of treating diseases such as psoriasis.
The activity of retinoid inverse agonists can be tested by the procedure of Klein et al. J. Biol. Chem. 271, 22692-22696 (1996) which is expressly incorporated herein by reference.
In this assay, retinoid inverse agonists are able to repress the basal activity of a […] -VP-16 chimeric receptor where the constituitively active domain of the herpes simplex virus (HSV) VP-16 is fused to the N-terminus of RARγ. […] Retinoid inverse agonists are able to inhibit the basal luciferase activity in these cells in a dose dependent manner and IC50 s measured.

Kd (RARα) | Kd (RARγ) | Kd (RARβ) | IC50 (RARγ -VP-16) | Compound
0.148 µM | 0.021 µM | 0.006 µM | – | Cc1ccc(C2=C(/C=C/C#Cc3ccc(C(=O)O)cc3)C(C)(C)CCC2)cc1 [Compound 13, (E)-4-(4-(1-(4-Methylphenyl)-3,3-dimethylcyclohexen-2-yl)but-3-en-1-yn-1-yl)benzoic Acid]
– | – | – | 0.001 µM | CCOC(=O)c1ccc(C#C/C=C/C2C(c3ccc(C)cc3)=CCCC2(C)C)cc1 (racemic) [Compound 10, Ethyl (±)-(E)-4-(4-(2-(4-Methylphenyl)-4,4-dimethylcyclohexen-3-yl)but-3-en-1-yn-1-yl)benzoate]
0.454 µM | 0.098 µM | 0.024 µM | – | Cc1ccc(C2=CCCC(C)(C)C2/C=C/C#Cc2ccc(C(=O)O)cc2)cc1 (racemic) [Compound 14, (±)-(E)-4-(4-(2-(4-Methylphenyl)-4,4-dimethylcyclohexen-3-yl)but-3-en-1-yn-1-yl)benzoic acid]
0.875 µM | 0.333 µM | 0.013 µM | – | CC1(C)CCCC(c2ccc(C(C)(C)C)cc2)=C1/C=C/C#Cc1ccc(C(=O)O)cc1 [Compound 16, (E)-4-(4-(1-(4-tert-butylphenyl)-3,3-dimethylcyclohexen-2-yl)but-3-en-1-yn-1-yl)benzoic acid]
0.136 µM | 0.036 µM | 0.004 µM | – | CCc1ccc(C2=C(/C=C/C#Cc3ccc(C(=O)O)cc3)C(C)(C)CCC2)cc1 [Compound 15, (E)-4-(4-(1-(4-Ethylphenyl)-3,3-dimethylcyclohexen-2-2l)but-3-en-1-yn-1-yl)benzoic acid]
0.134 µM | 0.033 µM | 0.048 µM | – | Cc1ccc(C2=CCC(C)(C)C=C2/C=C/C#Cc2ccc(C(=O)O)cc2)cc1 [Compound 24, (E)-4-(4-(2-(4-Methylphenyl)-5,5-dimethyl-1,3-cyclohexadien-3-yl)but-3-ene-1-yn-1-yl)benzoic Acid]
